From PubChem BioAssay (NCI)
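Tested at 5 concentrations; 48 h exposure; 96-well plates; endpoints linearly interpolated, else capped at highest concentration. The concentration for 50% growth inhibition is given as GI50. Definition used: TGI = concentration required for complete inhibition of growth.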

Legend:
Assay in all cases: NCI-60 cell line screen, 48 h
786-0 renal = system: 786-0 renal
A498 renal = system: A498 renal
A549 NSCLC = system: A549 NSCLC
ACHN renal = system: ACHN renal
BT-549 breast = system: BT-549 breast
CAKI-1 renal = system: CAKI-1 renal
CCRF-CEM leukemia = system: CCRF-CEM leukemia
DU-145 prostate = system: DU-145 prostate
EKVX NSCLC = system: EKVX NSCLC
HCC-2998 colon = system: HCC-2998 colon
HCT-116 colon = system: HCT-116 colon
HCT-15 colon = system: HCT-15 colon
HOP-62 NSCLC = system: HOP-62 NSCLC
HOP-92 NSCLC = system: HOP-92 NSCLC
HS 578T breast = system: HS 578T breast
HT29 colon = system: HT29 colon
IGROV1 ovarian = system: IGROV1 ovarian
K-562 leukemia = system: K-562 leukemia
KM12 colon = system: KM12 colon
LOX IMVI melanoma = system: LOX IMVI melanoma
M14 melanoma = system: M14 melanoma
MALME-3M melanoma = system: MALME-3M melanoma
MDA-MB-231 breast = system: MDA-MB-231 breast
MOLT-4 leukemia = system: MOLT-4 leukemia
NCI-H226 lung = system: NCI-H226 lung
NCI-H23 lung = system: NCI-H23 lung
NCI-H460 lung = system: NCI-H460 lung
NCI/ADR-RES ovarian = system: NCI/ADR-RES ovarian
OVCAR-3 ovarian = system: OVCAR-3 ovarian
OVCAR-4 ovarian = system: OVCAR-4 ovarian
OVCAR-5 ovarian = system: OVCAR-5 ovarian
OVCAR-8 ovarian = system: OVCAR-8 ovarian
PC-3 prostate = system: PC-3 prostate
RPMI-8226 leukemia = system: RPMI-8226 leukemia
RXF 393 renal = system: RXF 393 renal
SF-268 CNS = system: SF-268 CNS
SF-295 CNS = system: SF-295 CNS
SF-539 CNS = system: SF-539 CNS
SK-MEL-2 melanoma = system: SK-MEL-2 melanoma
SK-MEL-28 melanoma = system: SK-MEL-28 melanoma
SK-MEL-5 melanoma = system: SK-MEL-5 melanoma
SK-OV-3 ovarian = system: SK-OV-3 ovarian
SN12C renal = system: SN12C renal
SNB-19 CNS = system: SNB-19 CNS
SNB-75 CNS = system: SNB-75 CNS
SR leukemia = system: SR leukemia
SW-620 colon = system: SW-620 colon
T-47D breast = system: T-47D breast
TK-10 renal = system: TK-10 renal
U251 CNS = system: U251 CNS
UACC-257 melanoma = system: UACC-257 melanoma
UACC-62 melanoma = system: UACC-62 melanoma
UO-31 renal = system: UO-31 renal
COLO 205 colon = system: COLO 205 colon
HL-60(TB) leukemia = system: HL-60(TB) leukemia
MCF7 breast = system: MCF7 breast
MDA-MB-435 = system: MDA-MB-435
NCI-H522 lung = system: NCI-H522 lung

SMILES: COc1cc2c(/C=C3/C(=O)Nc4ccc(O)cc43)c(Cl)n(Cc3ccccc3)c2cc1C
- TGI (786-0 renal): 3.28 µM
- GI50 (A498 renal): 6.26 µM
- TGI (A498 renal): > 100 µM
- TGI (A549 NSCLC): > 100 µM
- TGI (ACHN renal): 35.3 µM
- GI50 (BT-549 breast): 4.67 µM
- TGI (BT-549 breast): 24.6 µM
- TGI (CAKI-1 renal): 19.2 µM
- TGI (CCRF-CEM leukemia): > 100 µM
- TGI (DU-145 prostate): 26 µM
- TGI (EKVX NSCLC): > 100 µM
- GI50 (HCC-2998 colon): 0.201 µM
- TGI (HCC-2998 colon): 0.799 µM
- TGI (HCT-116 colon): 1.91 µM
- TGI (HCT-15 colon): > 22.6 µM
- GI50 (HOP-62 NSCLC): 0.403 µM
- TGI (HOP-62 NSCLC): 9.39 µM
- TGI (HOP-92 NSCLC): > 78.3 µM
- TGI (HS 578T breast): 3.36 µM
- TGI (HT29 colon): 3.96 µM
- TGI (IGROV1 ovarian): 16.8 µM
- TGI (K-562 leukemia): > 100 µM
- TGI (KM12 colon): 1.35 µM
- TGI (LOX IMVI melanoma): 24.9 µM
- TGI (M14 melanoma): 11.8 µM
- TGI (MALME-3M melanoma): 0.629 µM
- TGI (MDA-MB-231 breast): 42 µM
- TGI (MOLT-4 leukemia): > 100 µM
- TGI (NCI-H226 lung): 15.5 µM
- TGI (NCI-H23 lung): 3.89 µM
- TGI (NCI-H460 lung): > 43.4 µM
- TGI (NCI/ADR-RES ovarian): 2.6 µM
- TGI (OVCAR-3 ovarian): 0.704 µM
- TGI (OVCAR-4 ovarian): > 100 µM
- TGI (OVCAR-5 ovarian): 14.5 µM
- TGI (OVCAR-8 ovarian): 12.2 µM
- TGI (PC-3 prostate): > 87.1 µM
- TGI (RPMI-8226 leukemia): 6.74 µM
- TGI (RXF 393 renal): 5.06 µM
- TGI (SF-268 CNS): 24.9 µM
- TGI (SF-295 CNS): 3.91 µM
- TGI (SF-539 CNS): 3.8 µM
- TGI (SK-MEL-2 melanoma): > 100 µM
- TGI (SK-MEL-28 melanoma): 44.1 µM
- TGI (SK-MEL-5 melanoma): 2.46 µM
- TGI (SK-OV-3 ovarian): > 60.2 µM
- TGI (SN12C renal): > 45.3 µM
- TGI (SNB-19 CNS): 18.3 µM
- TGI (SNB-75 CNS): > 100 µM
- TGI (SR leukemia): 3.35 µM
- TGI (SW-620 colon): 19.9 µM
- TGI (T-47D breast): > 74.8 µM
- TGI (TK-10 renal): > 40.7 µM
- TGI (U251 CNS): > 42.4 µM
- TGI (UACC-257 melanoma): > 56.5 µM
- TGI (UACC-62 melanoma): > 41.9 µM
- TGI (UO-31 renal): > 100 µM

SMILES: COc1cc[nH]c1/C=C1\C(=O)Nc2ccccc21
- GI50 (786-0 renal): 15.9 µM
- TGI (786-0 renal): > 25 µM
- GI50 (A498 renal): 5.34 µM
- TGI (A498 renal): > 25 µM
- GI50 (A549 NSCLC): 11.1 µM
- TGI (A549 NSCLC): > 25 µM
- GI50 (ACHN renal): 3.5 µM
- TGI (ACHN renal): > 25 µM
- GI50 (BT-549 breast): 7.98 µM
- TGI (BT-549 breast): > 25 µM
- GI50 (CAKI-1 renal): 1.04 µM
- TGI (CAKI-1 renal): > 11.5 µM
- GI50 (CCRF-CEM leukemia): 13.1 µM
- TGI (CCRF-CEM leukemia): > 25 µM
- GI50 (COLO 205 colon): 14.1 µM
- TGI (COLO 205 colon): > 25 µM
- GI50 (DU-145 prostate): 9.37 µM
- TGI (DU-145 prostate): > 25 µM
- GI50 (HCC-2998 colon): > 20.7 µM
- TGI (HCC-2998 colon): > 25 µM
- GI50 (HCT-116 colon): 5.66 µM
- TGI (HCT-116 colon): > 25 µM
- GI50 (HCT-15 colon): 4.85 µM
- TGI (HCT-15 colon): > 25 µM
- GI50 (HL-60(TB) leukemia): 6.58 µM
- TGI (HL-60(TB) leukemia): > 25 µM
- GI50 (HOP-62 NSCLC): > 19.3 µM
- TGI (HOP-62 NSCLC): > 25 µM
- GI50 (HOP-92 NSCLC): 4.34 µM
- TGI (HOP-92 NSCLC): > 21 µM
- GI50 (HS 578T breast): 5.91 µM
- TGI (HS 578T breast): > 25 µM
- GI50 (HT29 colon): 12.3 µM
- TGI (HT29 colon): > 25 µM
- GI50 (IGROV1 ovarian): 8.48 µM
- TGI (IGROV1 ovarian): > 25 µM
- GI50 (K-562 leukemia): 16.9 µM
- TGI (K-562 leukemia): > 25 µM
- GI50 (KM12 colon): 0.948 µM
- TGI (KM12 colon): > 25 µM
- GI50 (LOX IMVI melanoma): 7.68 µM
- TGI (LOX IMVI melanoma): > 25 µM
- GI50 (M14 melanoma): 4.98 µM
- TGI (M14 melanoma): > 25 µM
- GI50 (MALME-3M melanoma): 9.88 µM
- TGI (MALME-3M melanoma): > 25 µM
- GI50 (MCF7 breast): 5.79 µM
- TGI (MCF7 breast): > 25 µM
- GI50 (MDA-MB-231 breast): 4.87 µM
- TGI (MDA-MB-231 breast): > 25 µM
- GI50 (MDA-MB-435): 9.01 µM
- TGI (MDA-MB-435): > 25 µM
- GI50 (MOLT-4 leukemia): 11 µM
- TGI (MOLT-4 leukemia): > 25 µM
- GI50 (NCI-H226 lung): 7.14 µM
- TGI (NCI-H226 lung): > 25 µM
- GI50 (NCI-H23 lung): 7.7 µM
- TGI (NCI-H23 lung): > 25 µM
- GI50 (NCI-H460 lung): 8.85 µM
- TGI (NCI-H460 lung): > 25 µM
- GI50 (NCI-H522 lung): 12.7 µM
- TGI (NCI-H522 lung): > 25 µM
- GI50 (NCI/ADR-RES ovarian): 15.5 µM
- TGI (NCI/ADR-RES ovarian): > 25 µM
- GI50 (OVCAR-3 ovarian): > 21.5 µM
- TGI (OVCAR-3 ovarian): > 25 µM
- GI50 (OVCAR-4 ovarian): 8.02 µM
- TGI (OVCAR-4 ovarian): > 25 µM
- GI50 (OVCAR-5 ovarian): 15.3 µM
- TGI (OVCAR-5 ovarian): > 25 µM
- GI50 (OVCAR-8 ovarian): 14.2 µM
- TGI (OVCAR-8 ovarian): > 25 µM
- GI50 (PC-3 prostate): 8.78 µM
- TGI (PC-3 prostate): > 25 µM
- GI50 (RPMI-8226 leukemia): 14.5 µM
- TGI (RPMI-8226 leukemia): > 25 µM
- GI50 (RXF 393 renal): 5.33 µM
- TGI (RXF 393 renal): > 25 µM
- GI50 (SF-268 CNS): 11.2 µM
- TGI (SF-268 CNS): > 25 µM
- GI50 (SF-295 CNS): > 25 µM
- TGI (SF-295 CNS): > 25 µM
- GI50 (SF-539 CNS): 7.02 µM
- TGI (SF-539 CNS): > 25 µM
- GI50 (SK-MEL-2 melanoma): 3.55 µM
- TGI (SK-MEL-2 melanoma): 15.7 µM
- GI50 (SK-MEL-28 melanoma): 16 µM
- TGI (SK-MEL-28 melanoma): > 25 µM
- GI50 (SK-MEL-5 melanoma): 10.9 µM
- TGI (SK-MEL-5 melanoma): > 25 µM
- GI50 (SK-OV-3 ovarian): 8.14 µM
- TGI (SK-OV-3 ovarian): > 25 µM
- GI50 (SN12C renal): 7.36 µM
- TGI (SN12C renal): > 25 µM
- GI50 (SNB-19 CNS): > 25 µM
- TGI (SNB-19 CNS): > 25 µM
- GI50 (SNB-75 CNS): 5.9 µM
- TGI (SNB-75 CNS): > 25 µM
- GI50 (SR leukemia): 6.44 µM
- TGI (SR leukemia): > 22.7 µM
- GI50 (SW-620 colon): 7.24 µM
- TGI (SW-620 colon): > 25 µM
- GI50 (T-47D breast): 4.05 µM
- TGI (T-47D breast): > 25 µM
- GI50 (TK-10 renal): 6.71 µM
- TGI (TK-10 renal): > 25 µM
- GI50 (U251 CNS): 4.17 µM
- TGI (U251 CNS): > 25 µM
- GI50 (UACC-257 melanoma): 17.3 µM
- TGI (UACC-257 melanoma): > 25 µM
- GI50 (UACC-62 melanoma): 8.58 µM
- TGI (UACC-62 melanoma): > 25 µM
- GI50 (UO-31 renal): 1.69 µM
- TGI (UO-31 renal): 24.6 µM
